# Source: US8952024B2, “Herbicidal pyrimidone derivatives” (E I du Pont de Nemours and Company, priority 2009, dated 2015)
# Tested on: nightshade (eastern black nightshade, Solanum ptycanthum)
# Experiment: Test B pre-/postemergence plant response
# Type: in vivo
# Settings: 250 g ai/ha, Preemergence, 0 to 100 scale
# Procedure, shortened: (§1)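 Visual ratings on a 0–100 scale (100 = complete control) were made versus untreated controls 13–15 days after treatment in a greenhouse. Compounds in surfactant-containing non-phytotoxic solvent were applied preemergence to seeds in loam–sand blend or postemergence to 1- to 4-leaf plants (2–18 cm).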
row,Compound,"Plant response rating, Nightshade"
1,Cc1cccc(Cl)c1-n1c(-c2ccccc2)ncc(C(=O)C2=C(O)CCCC2=O)c1=O [Compound 46],98

# Same assay, conditions: Preemergence, 31 g ai/ha; scale 0 to 100 (0 no effect, 100 complete control)
row,Compound,"Plant response rating, Nightshade"
1,Cc1cccc(Cl)c1-n1c(-c2ccccc2)ncc(C(=O)C2=C(O)CCCC2=O)c1=O [Compound 46],95
2,Cc1cc(-n2c(-c3ccccc3)ncc(C(=O)C3=C(O)CCCC3=O)c2=O)ccc1F [Compound 53],98

# Same assay, conditions: Preemergence, 62 g ai/ha; scale 0 to 100 (0 no effect, 100 complete control)
row,Compound,"Plant response rating, Nightshade"
1,Cc1cccc(Cl)c1-n1c(-c2ccccc2)ncc(C(=O)C2=C(O)CCCC2=O)c1=O [Compound 46],95
2,Cc1cc(-n2c(-c3ccccc3)ncc(C(=O)C3=C(O)CCCC3=O)c2=O)ccc1F [Compound 53],98

# Same assay, conditions: Preemergence, 125 g ai/ha; 0 to 100 scale
row,Compound,Nightshade plant response rating
1,Cc1cccc(Cl)c1-n1c(-c2ccccc2)ncc(C(=O)C2=C(O)CCCC2=O)c1=O [Compound 46],98

# Same assay, conditions: Preemergence, 125 g ai/ha; scale 0 to 100, 0 no effect, 100 complete control
row,Compound,"Plant response rating, Nightshade"
1,Cc1cc(-n2c(-c3ccccc3)ncc(C(=O)C3=C(O)CCCC3=O)c2=O)ccc1F [Compound 53],100

# Tested on: galium (catchweed bedstraw, Galium aparine)
# Experiment: Test B pre-/postemergence plant response
# Type: in vivo
# Settings: 250 g ai/ha, Preemergence, 0 to 100 scale
# Procedure, shortened: as §1
row,Compound,"Plant response rating, Galium"
1,Cc1cccc(Cl)c1-n1c(-c2ccccc2)ncc(C(=O)C2=C(O)CCCC2=O)c1=O [Compound 46],70
2,Cc1cc(-n2c(-c3ccccc3)ncc(C(=O)C3=C(O)CCCC3=O)c2=O)ccc1F [Compound 53],90

# Same assay, conditions: Postemergence, 31 g ai/ha; 0 to 100 scale (0 no effect, 100 complete control)
row,Compound,"Plant response rating, Galium"
1,Cc1ccc(Cl)cc1-n1c(-c2cccc(F)c2)ncc(C(=O)C2=C(O)CCCC2=O)c1=O [Compound 184],50
2,O=C1CCCC(O)=C1C(=O)c1cnc(-c2cccc(F)c2)n(C2CCCCC2)c1=O [Compound 187],20
3,O=C1CCCC(O)=C1C(=O)c1cnc(-c2cccs2)n(C2CCCCC2)c1=O [Compound 189],20
4,CCCn1c(-c2cccc(Cl)c2)ncc(C(=O)C2=C(O)CCCC2=O)c1=O [Compound 190],50
5,Cc1cc(-n2c(-c3cccc(F)c3)ncc(C(=O)C3=C(O)CCCC3=O)c2=O)ccc1F [Compound 191],20
6,O=C1CCCC(O)=C1C(=O)c1cnc(-c2ccc(F)cc2)n(C2CCCCC2)c1=O [Compound 197],75

# Same assay, conditions: Postemergence, 62 g ai/ha; scale 0 to 100 (0 no effect, 100 complete control)
row,Compound,"Plant response rating, Galium"
1,Cc1cc(-n2c(-c3cccc(F)c3)ncc(C(=O)C3=C(O)CCCC3=O)c2=O)ccc1F [Compound 191],40
2,O=C1CCCC(O)=C1C(=O)c1cnc(-c2ccc(F)cc2)n(C2CCCCC2)c1=O [Compound 197],75

# Same assay, conditions: Postemergence, 125 g ai/ha; scale 0 to 100 (0 no effect, 100 complete control)
row,Compound,"Plant response rating, Galium"
1,Cc1ccc(Cl)cc1-n1c(-c2cccc(F)c2)ncc(C(=O)C2=C(O)CCCC2=O)c1=O [Compound 184],60
2,O=C1CCCC(O)=C1C(=O)c1cnc(-c2cccc(F)c2)n(C2CCCCC2)c1=O [Compound 187],55
3,O=C1CCCC(O)=C1C(=O)c1cnc(-c2cccs2)n(C2CCCCC2)c1=O [Compound 189],85
4,CCCn1c(-c2cccc(Cl)c2)ncc(C(=O)C2=C(O)CCCC2=O)c1=O [Compound 190],60
5,Cc1cc(-n2c(-c3cccc(F)c3)ncc(C(=O)C3=C(O)CCCC3=O)c2=O)ccc1F [Compound 191],60

# Same assay, conditions: Postemergence, 250 g ai/ha; scale 0 to 100 (0 no effect, 100 complete control); 13 to 15 days
row,Compound,"Plant response rating, Galium"
1,Cc1ccc(Cl)cc1-n1c(-c2cccc(F)c2)ncc(C(=O)C2=C(O)CCCC2=O)c1=O [Compound 184],60
2,O=C1CCCC(O)=C1C(=O)c1cnc(-c2cccc(F)c2)n(C2CCCCC2)c1=O [Compound 187],85
3,O=C1CCCC(O)=C1C(=O)c1cnc(-c2cccs2)n(C2CCCCC2)c1=O [Compound 189],85
4,CCCn1c(-c2cccc(Cl)c2)ncc(C(=O)C2=C(O)CCCC2=O)c1=O [Compound 190],85
5,Cc1cc(-n2c(-c3cccc(F)c3)ncc(C(=O)C3=C(O)CCCC3=O)c2=O)ccc1F [Compound 191],60
6,O=C1CCCC(O)=C1C(=O)c1cnc(-c2ccc(F)cc2)n(C2CCCCC2)c1=O [Compound 197],80

# Same assay, conditions: Preemergence, 31 g ai/ha; scale 0 to 100 (0 no effect, 100 complete control)
row,Compound,"Plant response rating, Galium"
1,Cc1cccc(Cl)c1-n1c(-c2ccccc2)ncc(C(=O)C2=C(O)CCCC2=O)c1=O [Compound 46],0
2,Cc1cc(-n2c(-c3ccccc3)ncc(C(=O)C3=C(O)CCCC3=O)c2=O)ccc1F [Compound 53],0

# Same assay, conditions: Preemergence, 62 g ai/ha; scale 0 to 100 (0 no effect, 100 complete control)
row,Compound,"Plant response rating, Galium"
1,Cc1cccc(Cl)c1-n1c(-c2ccccc2)ncc(C(=O)C2=C(O)CCCC2=O)c1=O [Compound 46],0
2,Cc1cc(-n2c(-c3ccccc3)ncc(C(=O)C3=C(O)CCCC3=O)c2=O)ccc1F [Compound 53],0

# Same assay, conditions: Preemergence, 125 g ai/ha; 0 to 100 scale
row,Compound,Galium plant response rating
1,Cc1cccc(Cl)c1-n1c(-c2ccccc2)ncc(C(=O)C2=C(O)CCCC2=O)c1=O [Compound 46],0

# Same assay, conditions: Preemergence, 125 g ai/ha; scale 0 to 100, 0 no effect, 100 complete control
row,Compound,"Plant response rating, Galium"
1,Cc1cc(-n2c(-c3ccccc3)ncc(C(=O)C3=C(O)CCCC3=O)c2=O)ccc1F [Compound 53],0

# Tested on: sunflower (common oilseed sunflower, Helianthus annuus)
# Experiment: Test B pre-/postemergence plant response
# Type: in vivo
# Settings: 250 g ai/ha, Preemergence, 0 to 100 scale
# Procedure, shortened: as §1
row,Compound,"Plant response rating, Sunflower"
1,Cc1cccc(Cl)c1-n1c(-c2ccccc2)ncc(C(=O)C2=C(O)CCCC2=O)c1=O [Compound 46],60

# Same assay, conditions: Preemergence, 31 g ai/ha; scale 0 to 100 (0 no effect, 100 complete control)
row,Compound,"Plant response rating, Sunflower"
1,Cc1cccc(Cl)c1-n1c(-c2ccccc2)ncc(C(=O)C2=C(O)CCCC2=O)c1=O [Compound 46],0
2,Cc1cc(-n2c(-c3ccccc3)ncc(C(=O)C3=C(O)CCCC3=O)c2=O)ccc1F [Compound 53],15

# Same assay, conditions: Preemergence, 62 g ai/ha; scale 0 to 100 (0 no effect, 100 complete control)
row,Compound,"Plant response rating, Sunflower"
1,Cc1cc(-n2c(-c3ccccc3)ncc(C(=O)C3=C(O)CCCC3=O)c2=O)ccc1F [Compound 53],55

# Same assay, conditions: Preemergence, 125 g ai/ha; 0 to 100 scale
row,Compound,Sunflower plant response rating
1,Cc1cccc(Cl)c1-n1c(-c2ccccc2)ncc(C(=O)C2=C(O)CCCC2=O)c1=O [Compound 46],0

# Same assay, conditions: Preemergence, 125 g ai/ha; scale 0 to 100, 0 no effect, 100 complete control
row,Compound,"Plant response rating, Sunflower"
1,Cc1cc(-n2c(-c3ccccc3)ncc(C(=O)C3=C(O)CCCC3=O)c2=O)ccc1F [Compound 53],65

# Same assay, conditions: Preemergence; 0 is no effect, 100 is complete control; rated after 13 to 15 days; application rate of this section not shown
row,Compound,Sunflower plant response rating (0 to 100 scale)
1,"5-[(2-hydroxy-6-oxo-1-cyclohexen-1-yl)carbonyl]-2,3-diphenyl-4(3H)-pyrimidinone [Compound 2]",0
